Several values for one entry are separate records, joined by “and”; a condition that tells them apart may be missing. Identical values can stand only once. Entries after “also recorded” stand apart in the source; their conditions may differ. Like-named read-outs stand apart in the source and are kept apart here.
Legend:
[1] = system: Escherichia coli heat-stable enterotoxin (ST)-induced intestinal fluid secretion; assay type: in vivo, suckling mice
[2] = system: basal intestinal fluid secretion; set-up: species or system suckling mice; conditions: mouse, in vivo
[3] = system: 8-bromo cyclic GMP-induced intestinal fluid secretion; set-up: species or system suckling mice; conditions: mouse, in vivo
guanylate cyclase [4] = target: guanylate cyclase (Rattus norvegicus, UniProt P23897); experiment: biochemical; set-up: species or system Sprague-Dawley rat; conditions: for inhibition at 1000 µM / % Inhibition of ST-activated guanylate cyclase activity: 1.0 mM; for % Inhibition of ST-activated guanylate cyclase activity: ST-activated (6 units/ml); for inhibition at 10000 µM: 10 mM; for inhibition at 100 µM: 0.1 mM
Chain of guanylate cyclase (Rattus norvegicus, UniProt P23897) (P23897 23-1072): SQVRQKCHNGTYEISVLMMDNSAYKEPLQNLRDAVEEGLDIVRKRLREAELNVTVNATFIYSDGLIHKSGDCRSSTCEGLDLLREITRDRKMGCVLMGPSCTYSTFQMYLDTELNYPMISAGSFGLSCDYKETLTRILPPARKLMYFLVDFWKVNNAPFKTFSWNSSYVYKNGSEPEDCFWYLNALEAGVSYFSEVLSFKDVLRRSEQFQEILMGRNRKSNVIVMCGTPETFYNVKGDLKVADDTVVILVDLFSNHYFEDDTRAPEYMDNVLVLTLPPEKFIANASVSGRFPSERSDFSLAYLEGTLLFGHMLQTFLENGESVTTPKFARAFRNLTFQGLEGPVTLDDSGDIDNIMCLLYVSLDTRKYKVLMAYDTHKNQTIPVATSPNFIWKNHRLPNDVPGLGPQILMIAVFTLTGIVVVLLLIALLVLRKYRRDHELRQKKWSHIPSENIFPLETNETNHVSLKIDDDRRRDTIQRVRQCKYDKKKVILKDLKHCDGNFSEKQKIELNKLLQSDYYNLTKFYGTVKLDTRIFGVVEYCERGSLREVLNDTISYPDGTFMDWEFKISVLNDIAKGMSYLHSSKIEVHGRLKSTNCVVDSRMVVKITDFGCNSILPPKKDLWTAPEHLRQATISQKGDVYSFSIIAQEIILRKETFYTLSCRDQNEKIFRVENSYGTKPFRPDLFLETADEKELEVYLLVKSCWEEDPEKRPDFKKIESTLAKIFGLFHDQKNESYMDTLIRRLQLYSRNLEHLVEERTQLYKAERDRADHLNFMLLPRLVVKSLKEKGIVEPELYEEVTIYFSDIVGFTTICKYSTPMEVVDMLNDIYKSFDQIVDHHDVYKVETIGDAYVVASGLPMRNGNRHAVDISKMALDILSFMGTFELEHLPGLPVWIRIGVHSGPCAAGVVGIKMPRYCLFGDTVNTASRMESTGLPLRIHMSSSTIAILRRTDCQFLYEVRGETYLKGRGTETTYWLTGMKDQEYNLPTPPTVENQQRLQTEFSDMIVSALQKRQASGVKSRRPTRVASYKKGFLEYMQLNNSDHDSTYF

ST = conditions: cited from earlier work
guanylate cyclase [5] = conditions: cited from earlier work
[6] = system: intestinal fluid secretion; conditions: in vivo; cited from earlier work
[7] = read-out: % Inhibition of ST-activated guanylate cyclase activity, ST-activated (6 units/ml)
[8] = read-out: % Inhibition of basal guanylate cyclase activity, basal
[9] = read-out: inhibition of ST-activated guanylate cyclase activity, ST-activated (6 ST units/ml)
[10] = read-out: inhibition of basal guanylate cyclase activity, basal

N[C@@H](CSSC[C@H](N)C(=O)O)C(=O)O [L-cystine]
effect on ST-induced intestinal secretion (in words) ([1]; mouse, in vivo): significantly reduced | intestinal fluid ratio (intestinal weight to remaining body weight), ST-induced ([1]; mouse, in vivo): 0.0940±0.004 and 0.1288±0.003 | effect on ST-induced secretion (in words) ([1]; mouse, in vivo, sc): neither compound reduced intestinal secretion | intestinal fluid ratio (intestinal weight to remaining body weight), ST-induced ([1]; mouse, in vivo, sc): 0.1115±0.006 | effect on basal secretion (in words) ([2]; sc): Neither agent given s.c. or i.g. significantly altered basal secretion | Intestinal:Body Wt. Ratio, 8-bromo cyclic GMP-induced [3]: 0.1191 ± 0.004 | effect on 8-bromo cyclic GMP-induced intestinal secretion (in words) [3]: Neither compound altered cyclic GMP-induced intestinal secretion | Intestinal:Body Wt. Ratio, 8-bromo cyclic GMP-induced ([3]; sc): 0.1043 ± 0.004 | effect on ST-induced guanylate cyclase activity (in words) (guanylate cyclase [4]; ST-activated, 1 mM): significantly reduced | effect on basal guanylate cyclase activity (in words) (guanylate cyclase [4]; 1 mM): neither drug affected basal activity | effect on basal guanylate cyclase activity (in words) (guanylate cyclase [4]; concentration not given): Neither compound inhibited basal guanylate cyclase activity | inhibition at 1000 µM (guanylate cyclase [4]; [7]): 39% | inhibition at 1000 µM (guanylate cyclase [4]; [8]): 0%

COc1ccc2cc3[n+](cc2c1OC)CCc1cc2c(cc1-3)OCO2 [berberine]
intestinal-fluid ratio ± SEM ([1]; mouse, in vivo): .122 ± 0.003 | intestinal-fluid ratio, pre-treatment ([1]; mouse, in vivo): .122 ± .004

N[C@H](CSSC[C@@H](N)C(=O)O)C(=O)O [D-cystine]
effect on ST-induced intestinal secretion (in words) ([1]; mouse, in vivo): significantly reduced | intestinal fluid ratio (intestinal weight to remaining body weight), ST-induced ([1]; mouse, in vivo): 0.1034±0.004 and 0.1197±0.004 | effect on ST-induced secretion (in words) ([1]; mouse, in vivo, sc): neither compound reduced intestinal secretion | intestinal fluid ratio (intestinal weight to remaining body weight), ST-induced ([1]; mouse, in vivo, sc): 0.1092±0.011 | effect on basal secretion (in words) ([2]; sc): Neither agent given s.c. or i.g. significantly altered basal secretion | Intestinal:Body Wt. Ratio, 8-bromo cyclic GMP-induced [3]: 0.1048 ± 0.004 | effect on 8-bromo cyclic GMP-induced intestinal secretion (in words) [3]: Neither compound altered cyclic GMP-induced intestinal secretion | Intestinal:Body Wt. Ratio, 8-bromo cyclic GMP-induced ([3]; sc): 0.1001 ± 0.005 | effect on ST-induced guanylate cyclase activity (in words) (guanylate cyclase [4]; ST-activated, 1 mM): significantly reduced | effect on basal guanylate cyclase activity (in words) (guanylate cyclase [4]; 1 mM): neither drug affected basal activity | effect on basal guanylate cyclase activity (in words) (guanylate cyclase [4]; concentration not given): Neither compound inhibited basal guanylate cyclase activity | inhibition at 1000 µM (guanylate cyclase [4]; [7]): 33% | inhibition at 1000 µM (guanylate cyclase [4]; [8]): 0%

NCCCNCCSP(=O)(O)O [S-2-(3-aminopropylamino) ethyl phosphorothioic acid]
Ratio ± SEM, ST-induced ([1]; mouse, in vivo): 0.1034 ± 0.008 and 0.0685 ± 0.003

N[C@@H](CS)C(=O)O [L-cysteine]
intestinal fluid ratio (intestinal weight to remaining body weight), ST-induced ([1]; mouse, in vivo): 0.0680±0.001 and 0.0877±0.006 | effect on ST-induced fluid responses (in words) ([1]; mouse, in vivo, sc): neither D- or L-cysteine inhibited ST-induced fluid responses | effect on basal intestinal fluid level (in words) ([2]; sc): No effect on basal fluid level | Intestinal:Body Wt. Ratio, 8-bromo cyclic GMP-induced [3]: 0.1097 ± 0.004 | Intestinal:Body Wt. Ratio, 8-bromo cyclic GMP-induced ([3]; sc): 0.1051 ± 0.006 | % Inhibition of ST-activated guanylate cyclase activity (guanylate cyclase [4]): 11% | effect on basal guanylate cyclase activity (in words) (guanylate cyclase [4]; 1 mM): did not alter basal guanylate cyclase activity; also recorded: None of the other sulfhydryl compounds (1 mM) affected basal enzyme activity | inhibition at 1000 µM (guanylate cyclase [4]; [7]): 11 to 21% | inhibition at 1000 µM (guanylate cyclase [4]; [8]): 0%

O[C@H](CS)[C@H](O)CS (racemic) [dithiothreitol]
effect on biological activity of ST (in words) (ST): loses biological activity promptly

N[C@@H](CS[35S]C[C@H](N)C(=O)O)C(=O)O [^35 S-cystine]
effect on guanylate cyclase (in words) (guanylate cyclase [5]): reversible loss of enzyme activity

N[C@H](CS)C(=O)O [D-cysteine]
intestinal fluid ratio (intestinal weight to remaining body weight), ST-induced ([1]; mouse, in vivo): 0.0768±0.002 and 0.1121±0.005 | effect on ST-induced fluid responses (in words) ([1]; mouse, in vivo, sc): neither D- or L-cysteine inhibited ST-induced fluid responses | effect on basal intestinal fluid level (in words) ([2]; sc): No effect on basal fluid level | Intestinal:Body Wt. Ratio, 8-bromo cyclic GMP-induced [3]: 0.1191 ± 0.006 | Intestinal:Body Wt. Ratio, 8-bromo cyclic GMP-induced ([3]; sc): 0.1155 ± 0.005 | % Inhibition of ST-activated guanylate cyclase activity (guanylate cyclase [4]): 16% | effect on basal guanylate cyclase activity (in words) (guanylate cyclase [4]; 1 mM): did not alter basal guanylate cyclase activity; also recorded: None of the other sulfhydryl compounds (1 mM) affected basal enzyme activity | inhibition at 1000 µM (guanylate cyclase [4]; [7]): 11 to 21% | inhibition at 1000 µM (guanylate cyclase [4]; [8]): 0%

c1ccc2c(CC3=NCCN3)cccc2c1 [Naphazoline, naphazoline]
effect against ST (in words) ([1]; 10 mM): effective | intestinal-fluid ratio ± SEM, experiment #1 ([1]; mouse, in vivo): .150 ± .005 | intestinal-fluid ratio ± SEM, experiment #2 ([1]; mouse, in vivo): .123 ± .005 | death of mice (N = 3): ALL DEAD | margin to lethal dose (in words) (mouse, in vivo): only one log less than a lethal dose

CC(=O)N[C@@H](CS)C(=O)O [Acetylcysteine, acetylcysteine]
effect on ST-induced responses (in words) ([1]; mouse, in vivo): No significant inhibition | intestinal fluid ratio (intestinal weight to remaining body weight), ST-induced ([1]; mouse, in vivo): 0.0796±0.005 and 0.1061±0.005 | effect on ST-induced secretion (in words) ([1]; mouse, in vivo, sc): no inhibition | intestinal fluid ratio (intestinal weight to remaining body weight), ST-induced ([1]; mouse, in vivo, sc): 0.0804±0.003 | effect on basal fluid level (in words) ([2]; sc): not altered | effect on basal intestinal fluid level (in words) ([2]; sc): not affected | Intestinal:Body Wt. Ratio, 8-bromo cyclic GMP-induced [3]: 0.1028 ± 0.003 | Intestinal:Body Wt. Ratio, 8-bromo cyclic GMP-induced ([3]; sc): 0.1024 ± 0.003 | % Inhibition of ST-activated guanylate cyclase activity (guanylate cyclase [4]): 14% | % Inhibition of ST-activated guanylate cyclase activity (guanylate cyclase [4]; listed as acetylcysteine): 15% | effect on basal guanylate cyclase activity (in words) (guanylate cyclase [4]; 1 mM): did not alter basal guanylate cyclase activity; also recorded: None of the other sulfhydryl compounds (1 mM) affected basal enzyme activity | inhibition at 1000 µM (guanylate cyclase [4]; [7]): 11 to 21% | inhibition at 1000 µM (guanylate cyclase [4]; [8]): 0%

NCCSSCCN [Cystamine, cystamine]
effect on ST-induced secretion (in words) ([1]; mouse, in vivo): did not significantly affect ST-induced secretion | effect on ST-induced secretion (in words) ([1]; mouse, in vivo, sc): reduce ST-induced intestinal secretion; also recorded: significantly reduce secretion; also recorded: significantly reduced ST-induced secretion | intestinal fluid ratio (intestinal weight to remaining body weight), ST-induced ([1]; mouse, in vivo, sc): 0.0935±0.003 and 0.1154± 0.006 | effect on basal intestinal fluid level (in words) ([2]; sc): did not significantly alter basal intestinal fluid levels | Intestinal:Body Wt. Ratio, 8-bromo cyclic GMP-induced [3]: 0.1188 ± 0.003 | effect on 8-bromo cyclic GMP-induced intestinal secretion (in words) [3]: no effect | Intestinal:Body Wt. Ratio, 8-bromo cyclic GMP-induced ([3]; sc): 0.1115 ± 0.003 | effect on guanylate cyclase (in words) (guanylate cyclase [5]): very marked effects on guanylate cyclase activity; also recorded: almost completely inactivate | inhibition at 1000 µM (guanylate cyclase [4]; [7]): 73% | inhibition at 1000 µM (guanylate cyclase [4]; [8]): 45% | inhibition at 10000 µM (guanylate cyclase [4]; [9]): 82% | inhibition at 10000 µM (guanylate cyclase [4]; [10]): 54% | inhibition at 100 µM (guanylate cyclase [4]; read-out: reduction in basal guanylate cyclase activity, basal): 13% | inhibition at 100 µM (guanylate cyclase [4]; read-out: reduction of ST-induced guanylate cyclase activity, ST-activated (6 ST units/ml)): 32%

OCCS [2-mercaptoethanol]
effect on biological activity of ST (in words) (ST): loses biological activity promptly

NO [hydroxylamine]
effect on intestinal ion transport (in words) [6]: causes intestinal ion transport alterations similar to those seen with ST | effect on guanylate cyclase (in words) (guanylate cyclase [5]): activates guanylate cyclase

NCCS [Cysteamine, cysteamine]
P of inhibition of ST-induced secretion (FIG. 2) ([1]; mouse, in vivo): < 0.001 | effect on ST-induced fluid secretion (in words) ([1]; mouse, in vivo): most effective inhibitory agent | effect on ST-induced secretion (in words) ([1]; mouse, in vivo): significantly reduced; also recorded: reduced secretion | intestinal fluid ratio (intestinal weight to remaining body weight), ST-induced ([1]; mouse, in vivo): 0.0804±0.005 | intestinal-fluid ratio ± SEM ([1]; mouse, in vivo): .125 ± 0.003 | intestinal-fluid ratio ± SEM, experiment #1 ([1]; mouse, in vivo): .127 ± .007 | intestinal-fluid ratio ± SEM, experiment #2 ([1]; mouse, in vivo): .119 ± .006 | effect on ST-induced ratio (in words) ([1]; mouse, in vivo, sc): not significantly changed | intestinal fluid ratio (intestinal weight to remaining body weight), ST-induced ([1]; mouse, in vivo, sc): 0.0765±0.003 and 0.0840 ± 0.005 | effect on basal secretion (in words) [2]: did not alter basal secretion | effect on basal fluid level (in words) ([2]; sc): not affected | Intestinal:Body Wt. Ratio, 8-bromo cyclic GMP-induced [3]: 0.1106 ± 0.010 | Intestinal:Body Wt. Ratio, 8-bromo cyclic GMP-induced ([3]; sc): 0.1071 ± 0.005 | % Inhibition of ST-activated guanylate cyclase activity (guanylate cyclase [4]): 21% | % Inhibition of ST-activated guanylate cyclase activity (guanylate cyclase [4]; listed as cysteamine): 21% | effect on basal guanylate cyclase activity (in words) (guanylate cyclase [4]; 1 mM): did not alter basal guanylate cyclase activity; also recorded: did not affect basal activity | inhibition at 1000 µM (guanylate cyclase [4]; [7]): 11 to 21% | inhibition at 1000 µM (guanylate cyclase [4]; [8]): 0% | inhibition at 10000 µM (guanylate cyclase [4]; [9]): 63% | inhibition at 10000 µM (guanylate cyclase [4]; [10]): 15%

COc1ccc(O)c(C(C)(C)C)c1 [Butylated hydroxyanisole]
effect on ST-induced intestinal fluid secretion (in words) [6]: significantly reduces | effect on ST activation of guanylate cyclase (in words) (guanylate cyclase [5]): significantly reduces

N[C@@H](CCSC[C@H](N)C(=O)O)C(=O)O [Cystathionine, cystathionine]
effect on ST-induced fluid secretion (in words) ([1]; mouse, in vivo): no alteration | effect on ST-induced fluid secretion (in words) ([1]; mouse, in vivo, sc): did not inhibit ST-induced fluid secretion | effect on basal responses (in words) [2]: no alteration | effect on basal secretion (in words) ([2]; sc): nor alter the basal secretory ratio | Intestinal:Body Wt. Ratio, 8-bromo cyclic GMP-induced [3]: 0.1043 ± 0.002 | effect on 8-bromo cyclic GMP-induced intestinal secretion (in words) [3]: no alteration | Intestinal:Body Wt. Ratio, 8-bromo cyclic GMP-induced ([3]; sc): 0.1175 ± 0.004 | effect on ST-activated guanylate cyclase activity (in words) (guanylate cyclase [4]; ST-activated, concentration not given): no effect | effect on basal guanylate cyclase activity (in words) (guanylate cyclase [4]; concentration not given): no effect
